# From the supplement of paper PMC10307832
# Experiments:
# Test in all cases: relative viability (nuclei count vs DMSO), 5 days (fraction); higher = more cells survive
# Selisistat = compound: C1CC(C2=C(C1)C3=C(N2)C=CC(=C3)Cl)C(=O)N [Selisistat]
# In short: (§1)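 A plate was accepted only when its control CV was below 25% and the cells had doubled at least once. Viability is defined from nuclear counts as treated wells divided by vehicle wells, with the median taken across plates. That median covers lung cancer cell lines grown in 1536-well plates, dosed by pinning at five √10-spaced library-drug concentrations, and counted in MetaXpress from 4× Hoechst images after 5 days.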
# Serdemetan = compound: c1ccc2c(CCNc3ccc(Nc4ccncc4)cc3)c[nH]c2c1 [Serdemetan]
# In short: as §1
# Selisistat + OSI-027 = compound: C1CC(C2=C(C1)C3=C(N2)C=CC(=C3)Cl)C(=O)N [Selisistat] + COc1cccc2cc(-c3nc([C@H]4CC[C@H](C(=O)O)CC4)n4ncnc(N)c34)[nH]c12 [OSI-027] (partner 0.5 µM)
# In short: (§2)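 Relative viability divides the nuclei count in treated wells by that in vehicle wells. Lung cancer cell lines were seeded in 1536-well plates, dosed by pin tool the next day, and fixed and stained after 5 days in one step with final 0.05% Triton X-100, 1% formaldehyde and 1 ug/ml Hoechst. Dosing was a single drug or a fixed anchor-drug dose plus five library-drug doses (not always all listed) in √10 steps, and values are medians of duplicate plates imaged at 4×.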
# Serdemetan + Pemetrexed = compound: c1ccc2c(CCNc3ccc(Nc4ccncc4)cc3)c[nH]c2c1 [Serdemetan] + Nc1nc2[nH]cc(CCc3ccc(C(=O)N[C@@H](CCC(=O)O)C(=O)O)cc3)c2c(=O)[nH]1 [Pemetrexed] (partner 0.2 µM)
# In short: as §2
Cell Line,relative viability (Selisistat; 0.4 µM),relative viability (Selisistat; 1.265 µM),relative viability (Selisistat; 4 µM),relative viability (Selisistat; 12.65 µM),relative viability (Selisistat; 40 µM),relative viability (Serdemetan; 0.04 µM),relative viability (Serdemetan; 0.1265 µM),relative viability (Serdemetan; 0.4 µM),relative viability (Serdemetan; 1.265 µM),relative viability (Serdemetan; 4 µM),relative viability (Selisistat + OSI-027; first compound 0.4 µM),relative viability (Selisistat + OSI-027; first compound 1.265 µM),relative viability (Selisistat + OSI-027; first compound 4 µM),relative viability (Selisistat + OSI-027; first compound 12.65 µM),relative viability (Selisistat + OSI-027; first compound 40 µM),relative viability (Serdemetan + Pemetrexed; first compound 0.04 µM),relative viability (Serdemetan + Pemetrexed; first compound 0.1265 µM),relative viability (Serdemetan + Pemetrexed; first compound 0.4 µM),relative viability (Serdemetan + Pemetrexed; first compound 1.265 µM),relative viability (Serdemetan + Pemetrexed; first compound 4 µM)
NCI-H441,1.22,1.11,0.774,0.955,1.01,0.981,1.06,1.06,0.815,0.78,0.658,0.532,0.481,0.544,0.754,0.262,0.293,0.257,0.202,0.225
NCI-H460,0.986,0.961,0.933,0.968,1.03,0.936,0.962,0.926,0.77,0.316,0.695,0.667,0.471,0.557,0.666,0.0612,0.0565,0.0655,0.0326,0.064
NCI-H520,0.978,0.939,0.995,0.937,0.877,0.929,0.977,0.951,0.633,0.856,0.311,0.216,0.257,0.248,0.206,0.712,0.68,0.753,0.674,0.542
NCI-H522,0.899,0.964,0.763,0.806,0.885,1.03,0.938,0.943,0.605,1.09,0.744,0.677,0.61,0.756,0.681,0.971,0.857,1.04,0.933,0.98
NCI-H596,1.08,0.994,0.849,1.03,0.983,1.03,0.981,0.989,0.76,0.768,0.793,0.692,0.505,0.698,0.732,0.45,0.486,0.515,0.463,0.492
NCI-H647,0.958,0.964,0.826,0.959,1.03,0.905,0.964,0.964,0.819,0.655,0.746,0.58,0.614,0.713,0.829,0.164,0.172,0.175,0.179,0.137
NCI-H650,0.948,0.868,1.08,0.886,1.06,0.896,0.889,0.934,0.878,0.764,0.524,0.523,0.715,0.496,0.555,0.895,0.903,0.992,0.812,0.87
NCI-H661,1.02,1,1,0.901,0.906,0.974,0.977,1.01,0.815,0.94,0.749,0.81,0.744,0.629,0.564,0.968,0.902,0.877,0.786,0.806
NCI-H838,1.03,0.958,0.863,0.96,0.985,0.959,0.976,0.98,0.92,1.14,0.449,0.368,0.295,0.407,0.409,0.232,0.263,0.249,0.209,0.235
NCI-H1355,1.02,0.987,0.832,0.97,1.03,0.99,1.05,0.907,0.936,0.918,0.465,0.426,0.281,0.407,0.404,1.07,1.02,0.949,1.05,0.954
NCI-H1395,1.02,0.883,0.701,0.863,0.9,0.869,1.02,0.927,0.804,0.61,0.691,0.675,0.53,0.502,0.622,0.853,0.925,0.886,0.705,0.518
NCI-H1437,0.945,0.974,0.805,0.933,0.855,0.905,0.994,0.98,0.928,0.799,0.908,0.915,0.631,0.891,0.783,0.287,0.327,0.316,0.264,0.252
NCI-H1563,0.972,0.886,0.906,0.865,0.902,0.866,0.849,0.8,0.622,0.744,0.761,0.761,0.76,0.655,0.703,0.827,0.641,0.627,0.393,0.602
NCI-H1648,0.769,0.787,1.04,1.19,1.19,–,1.07,0.924,0.472,0.358,0.274,0.274,0.264,0.237,0.277,–,0.714,0.624,0.554,0.476
NCI-H1650,0.823,0.844,0.829,0.905,0.911,0.916,0.892,0.788,0.759,0.688,0.633,0.517,0.551,0.534,0.611,0.374,0.328,0.371,0.343,0.264
NCI-H1651,0.995,0.958,0.893,0.924,0.949,0.847,0.899,0.832,0.507,0.399,0.605,0.744,0.705,0.674,0.764,0.582,0.388,0.505,0.443,0.323

Cell Line,relative viability (Selisistat; 0.4 µM),relative viability (Selisistat; 1.265 µM),relative viability (Selisistat; 4 µM),relative viability (Selisistat; 12.65 µM),relative viability (Selisistat; 40 µM),relative viability (Serdemetan; 0.04 µM),relative viability (Serdemetan; 0.1265 µM),relative viability (Serdemetan; 0.4 µM),relative viability (Serdemetan; 1.265 µM),relative viability (Serdemetan; 4 µM),relative viability (Selisistat + OSI-027; first compound 0.4 µM),relative viability (Selisistat + OSI-027; first compound 1.265 µM),relative viability (Selisistat + OSI-027; first compound 4 µM),relative viability (Selisistat + OSI-027; first compound 12.65 µM),relative viability (Selisistat + OSI-027; first compound 40 µM),relative viability (Serdemetan + Pemetrexed; first compound 0.04 µM),relative viability (Serdemetan + Pemetrexed; first compound 0.1265 µM),relative viability (Serdemetan + Pemetrexed; first compound 0.4 µM),relative viability (Serdemetan + Pemetrexed; first compound 1.265 µM),relative viability (Serdemetan + Pemetrexed; first compound 4 µM)
NCI-H1666,1.06,0.933,0.877,1.04,0.966,0.985,0.946,0.934,0.634,0.781,0.794,0.744,0.841,0.673,0.711,0.795,0.87,0.786,–,0.675
NCI-H1734,1.02,0.942,0.921,1.08,1.03,0.854,0.455,0.821,0.171,0.263,0.616,0.636,0.491,0.545,0.685,0.44,0.396,0.405,0.171,0.14
NCI-H1755,1.08,1.1,0.977,1.01,1.08,1,0.975,0.959,0.775,0.763,0.745,0.736,0.739,0.686,0.746,0.575,0.4,0.539,0.512,0.418
NCI-H1792,0.927,1.18,–,0.862,0.855,0.934,0.674,0.848,0.593,0.62,0.745,0.68,–,0.644,0.689,0.74,0.88,0.761,0.38,0.404
NCI-H1793,0.968,0.846,–,0.956,0.942,1.03,0.873,0.562,0.471,0.572,0.28,0.245,–,0.299,0.345,0.864,0.831,0.616,0.419,0.431
NCI-H1915,0.992,1.03,0.795,0.963,1,1,1.02,0.996,0.819,0.948,0.678,0.646,0.425,0.605,0.646,0.52,0.517,0.493,0.491,0.489
NCI-H1944,1.11,0.92,–,0.858,0.975,0.95,0.918,0.858,0.469,0.738,0.485,0.394,–,0.433,0.441,0.581,0.599,0.741,0.469,0.476
NCI-H1975,0.952,0.839,0.763,0.825,0.836,0.934,0.978,0.919,0.937,0.993,0.678,0.718,0.62,0.659,0.626,0.279,0.3,0.312,0.309,0.295
NCI-H1993,0.911,0.898,–,1.01,1.04,0.977,0.995,0.699,0.831,0.89,0.506,0.584,0.618,0.554,0.542,0.577,0.581,0.591,0.589,0.546
NCI-H2009,1.01,1.03,0.772,0.933,0.975,0.97,0.967,1,0.776,0.885,0.659,0.662,0.424,0.509,0.535,1.03,0.89,1.1,0.895,0.892
NCI-H2023,0.952,0.966,0.828,0.876,0.934,0.884,1.09,0.932,0.424,0.345,0.492,0.405,0.347,0.401,0.406,0.213,0.223,0.227,0.206,0.217
NCI-H2085,1.11,0.991,0.858,0.965,1.05,0.964,0.968,0.897,0.844,0.744,0.822,0.733,0.397,0.79,0.921,0.91,0.818,0.773,0.798,0.642
NCI-H2087,1.18,1.06,–,0.89,0.97,1.16,1.08,0.944,0.57,0.409,0.646,0.645,–,0.516,0.652,0.704,0.611,0.643,0.404,0.28
NCI-H2126,1.08,1.05,0.833,0.999,1.02,1.02,1.05,0.96,0.948,1.02,0.781,0.639,0.609,0.62,0.768,0.671,0.707,0.579,0.601,0.78
NCI-H2170,1.02,0.978,0.956,1.03,1.1,1,1.02,1,0.972,0.985,0.839,0.692,0.63,0.766,0.739,0.231,0.288,0.248,0.266,0.284
NCI-H2228,0.9,1.12,0.966,1.05,1.11,0.974,0.98,0.945,0.342,0.336,0.57,0.541,0.484,0.651,0.569,0.349,0.364,0.325,0.312,0.253
